Experimental data as given in the supplement of paper PMC10307832.

How the values were obtained:
Experiment in all cases: relative viability (nuclei count vs DMSO), 5 days (fraction); higher = more cells survive
EMC-BAC-2 = test system: EMC-BAC-2
Summary of the method: (§1)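 One day after seeding in 1536-well plates, lung cancer cell lines were dosed by pin tool. Dosing was either single-drug or a fixed anchor-drug dose plus five library-drug doses (not always all listed) in √10 steps. After 5 days, nuclei were stained in one fix-and-stain step and counted on 4× images, and relative viability is the nuclei count of treated wells over that of vehicle wells, given as the median of duplicate plates.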

RERF-LC-KJ = test system: RERF-LC-KJ
Summary of the method: as §1

NCI-H2126 = test system: NCI-H2126
Summary of the method: as §1

NCI-H3122 = test system: NCI-H3122
Summary of the method: as §1

EPLC-272H = test system: EPLC-272H
Summary of the method: as §1

NCI-H1563 = test system: NCI-H1563
Summary of the method: as §1

LOU-NH91 = test system: LOU-NH91
Summary of the method: as §1

SW 1573 = test system: SW 1573
Summary of the method: as §1

NCI-H1666 = test system: NCI-H1666
Summary of the method: as §1

HCC-78 = test system: HCC-78
Summary of the method: as §1

LXF-289 = test system: LXF-289
Summary of the method: as §1

SW 900 = test system: SW 900
Summary of the method: as §1

LCLC-103H = test system: LCLC-103H
Summary of the method: as §1

HCC-366 = test system: HCC-366
Summary of the method: as §1

HCC-827 = test system: HCC-827
Summary of the method: as §1

NCI-H2085 = test system: NCI-H2085
Summary of the method: as §1

ChaGo-K-1 = test system: ChaGo-K-1
Summary of the method: as §1

NCI-H2405 = test system: NCI-H2405
Summary of the method: as §1

NCI-H23 = test system: NCI-H23
Summary of the method: as §1

LU99A = test system: LU99A
Summary of the method: as §1

LK-2 = test system: LK-2
Summary of the method: as §1

NCI-H1975 = test system: NCI-H1975
Summary of the method: as §1

SK-LU-1 = test system: SK-LU-1
Summary of the method: as §1

`C[C@@H]1CN(CC(=O)Nc2ccc3c(c2)Cc2cccc(-c4cc(=O)cc(N5CCOCC5)o4)c2S3)C[C@H](C)O1` + COc1cc2c(Oc3ccc(NC(=O)C4(C(=O)Nc5ccc(F)cc5)CC4)cc3F)ccnc2cc1OCCCN1CCOCC1 [Foretinib] (partner 0.25 µM) was tested. Which relative viability (EMC-BAC-2; first compound 0.04 µM) did it give?
Its relative viability is 1.08.

And the relative viability (EMC-BAC-2; first compound 0.1265 µM)?
The relative viability was 1.04.

And the relative viability (EMC-BAC-2; first compound 0.4 µM)?
The relative viability was 0.998.

And the relative viability (EMC-BAC-2; first compound 4 µM)?
Its relative viability is 0.92.

And the relative viability (RERF-LC-KJ; first compound 0.04 µM)?
Its relative viability is 0.826.

And the relative viability (RERF-LC-KJ; first compound 0.1265 µM)?
The relative viability was 0.88.

And the relative viability (RERF-LC-KJ; first compound 0.4 µM)?
Its relative viability is 0.827.

What about the relative viability (RERF-LC-KJ; first compound 4 µM) of the same molecule?
Its relative viability is 0.871.

What about the relative viability (NCI-H2126; first compound 0.04 µM) of the same molecule?
Its relative viability is 1.17.

And the relative viability (NCI-H2126; first compound 0.1265 µM)?
The relative viability was 1.12.

What about the relative viability (NCI-H2126; first compound 0.4 µM) of the same molecule?
The relative viability was 1.12.

What about the relative viability (NCI-H2126; first compound 4 µM) of the same molecule?
Its relative viability is 1.02.

What about the relative viability (NCI-H3122; first compound 0.04 µM) of the same molecule?
Its relative viability is 1.03.

And the relative viability (NCI-H3122; first compound 0.1265 µM)?
The relative viability was 0.902.

What about the relative viability (NCI-H3122; first compound 0.4 µM) of the same molecule?
The relative viability was 0.961.

And the relative viability (NCI-H3122; first compound 4 µM)?
Its relative viability is 0.914.

And the relative viability (EPLC-272H; first compound 0.04 µM)?
The relative viability was 0.643.

And the relative viability (EPLC-272H; first compound 0.1265 µM)?
Its relative viability is 0.817.

And the relative viability (EPLC-272H; first compound 0.4 µM)?
Its relative viability is 0.761.

What about the relative viability (EPLC-272H; first compound 4 µM) of the same molecule?
Its relative viability is 0.674.

What about the relative viability (NCI-H1563; first compound 0.04 µM) of the same molecule?
The relative viability was 0.831.

And the relative viability (NCI-H1563; first compound 0.1265 µM)?
Its relative viability is 0.894.

And the relative viability (NCI-H1563; first compound 0.4 µM)?
The relative viability was 0.908.

What about the relative viability (NCI-H1563; first compound 4 µM) of the same molecule?
Its relative viability is 0.788.

What about the relative viability (LOU-NH91; first compound 0.04 µM) of the same molecule?
Its relative viability is 1.

What about the relative viability (LOU-NH91; first compound 0.1265 µM) of the same molecule?
The relative viability was 0.96.

And the relative viability (LOU-NH91; first compound 0.4 µM)?
The relative viability was 0.943.

And the relative viability (LOU-NH91; first compound 4 µM)?
Its relative viability is 0.897.

And the relative viability (SW 1573; first compound 0.04 µM)?
Its relative viability is 0.683.

And the relative viability (SW 1573; first compound 0.1265 µM)?
The relative viability was 0.946.

What about the relative viability (SW 1573; first compound 0.4 µM) of the same molecule?
Its relative viability is 0.936.

And the relative viability (SW 1573; first compound 4 µM)?
The relative viability was 0.999.

And the relative viability (NCI-H1666; first compound 0.04 µM)?
The relative viability was 0.952.

What about the relative viability (NCI-H1666; first compound 0.1265 µM) of the same molecule?
Its relative viability is 0.989.

What about the relative viability (NCI-H1666; first compound 0.4 µM) of the same molecule?
Its relative viability is 1.05.

And the relative viability (NCI-H1666; first compound 4 µM)?
Its relative viability is 0.812.

What about the relative viability (HCC-78; first compound 0.04 µM) of the same molecule?
The relative viability was 0.554.

And the relative viability (HCC-78; first compound 0.1265 µM)?
The relative viability was 0.579.

What about the relative viability (HCC-78; first compound 0.4 µM) of the same molecule?
Its relative viability is 0.513.

What about the relative viability (HCC-78; first compound 4 µM) of the same molecule?
The relative viability was 0.468.

And the relative viability (LXF-289; first compound 0.04 µM)?
The relative viability was 0.993.

And the relative viability (LXF-289; first compound 0.1265 µM)?
The relative viability was 1.01.

And the relative viability (LXF-289; first compound 0.4 µM)?
Its relative viability is 0.985.

And the relative viability (LXF-289; first compound 4 µM)?
The relative viability was 0.936.

What about the relative viability (SW 900; first compound 0.04 µM) of the same molecule?
The relative viability was 0.809.

What about the relative viability (SW 900; first compound 0.1265 µM) of the same molecule?
Its relative viability is 0.836.

What about the relative viability (SW 900; first compound 0.4 µM) of the same molecule?
Its relative viability is 0.816.

And the relative viability (SW 900; first compound 4 µM)?
Its relative viability is 0.782.

And the relative viability (LCLC-103H; first compound 0.04 µM)?
The relative viability was 0.777.

And the relative viability (LCLC-103H; first compound 0.1265 µM)?
The relative viability was 0.671.

And the relative viability (LCLC-103H; first compound 0.4 µM)?
The relative viability was 0.671.

And the relative viability (LCLC-103H; first compound 4 µM)?
The relative viability was 0.608.

What about the relative viability (HCC-366; first compound 0.04 µM) of the same molecule?
Its relative viability is 0.922.

And the relative viability (HCC-366; first compound 0.1265 µM)?
Its relative viability is 0.929.

What about the relative viability (HCC-366; first compound 0.4 µM) of the same molecule?
Its relative viability is 1.1.

And the relative viability (HCC-366; first compound 4 µM)?
Its relative viability is 0.913.

What about the relative viability (HCC-827; first compound 0.04 µM) of the same molecule?
The relative viability was 1.08.

And the relative viability (HCC-827; first compound 0.1265 µM)?
The relative viability was 1.

What about the relative viability (HCC-827; first compound 0.4 µM) of the same molecule?
The relative viability was 1.08.

What about the relative viability (HCC-827; first compound 4 µM) of the same molecule?
Its relative viability is 0.939.

What about the relative viability (NCI-H2085; first compound 0.04 µM) of the same molecule?
Its relative viability is 1.15.

What about the relative viability (NCI-H2085; first compound 0.1265 µM) of the same molecule?
The relative viability was 0.83.

What about the relative viability (NCI-H2085; first compound 0.4 µM) of the same molecule?
Its relative viability is 1.03.

What about the relative viability (NCI-H2085; first compound 4 µM) of the same molecule?
Its relative viability is 0.745.

What about the relative viability (ChaGo-K-1; first compound 0.04 µM) of the same molecule?
The relative viability was 0.793.

What about the relative viability (ChaGo-K-1; first compound 0.1265 µM) of the same molecule?
Its relative viability is 0.929.

What about the relative viability (ChaGo-K-1; first compound 0.4 µM) of the same molecule?
The relative viability was 0.892.

What about the relative viability (ChaGo-K-1; first compound 4 µM) of the same molecule?
The relative viability was 0.825.

And the relative viability (NCI-H2405; first compound 0.04 µM)?
Its relative viability is 1.02.

And the relative viability (NCI-H2405; first compound 0.1265 µM)?
The relative viability was 1.08.

What about the relative viability (NCI-H2405; first compound 0.4 µM) of the same molecule?
Its relative viability is 1.03.

What about the relative viability (NCI-H2405; first compound 4 µM) of the same molecule?
The relative viability was 1.03.

And the relative viability (NCI-H23; first compound 0.04 µM)?
The relative viability was 0.95.

What about the relative viability (NCI-H23; first compound 0.1265 µM) of the same molecule?
Its relative viability is 0.85.

And the relative viability (NCI-H23; first compound 0.4 µM)?
The relative viability was 0.945.

And the relative viability (NCI-H23; first compound 4 µM)?
The relative viability was 0.844.

What about the relative viability (LU99A; first compound 0.04 µM) of the same molecule?
Its relative viability is 0.79.

What about the relative viability (LU99A; first compound 0.1265 µM) of the same molecule?
The relative viability was 0.959.

And the relative viability (LU99A; first compound 0.4 µM)?
Its relative viability is 1.02.

What about the relative viability (LU99A; first compound 4 µM) of the same molecule?
The relative viability was 0.854.

What about the relative viability (LK-2; first compound 0.1265 µM) of the same molecule?
Its relative viability is 1.27.

And the relative viability (LK-2; first compound 0.4 µM)?
The relative viability was 1.16.

What about the relative viability (LK-2; first compound 4 µM) of the same molecule?
The relative viability was 1.47.

And the relative viability (NCI-H1975; first compound 0.04 µM)?
Its relative viability is 0.978.

And the relative viability (NCI-H1975; first compound 0.1265 µM)?
The relative viability was 0.782.

What about the relative viability (NCI-H1975; first compound 0.4 µM) of the same molecule?
The relative viability was 0.996.

And the relative viability (NCI-H1975; first compound 4 µM)?
Its relative viability is 0.765.

What about the relative viability (SK-LU-1; first compound 0.04 µM) of the same molecule?
Its relative viability is 0.813.

What about the relative viability (SK-LU-1; first compound 0.1265 µM) of the same molecule?
The relative viability was 0.831.

What about the relative viability (SK-LU-1; first compound 0.4 µM) of the same molecule?
The relative viability was 0.859.

What about the relative viability (SK-LU-1; first compound 4 µM) of the same molecule?
Its relative viability is 0.565.
